Measured values: patent publication US20080171709A1, “Pharmaceutical Composition Comprising An Antiviral Agent, An Antitumoral Agent Or An Antiparasitic Agent, And An Active Agent Selected Among Carveol, Thymol, Eugenol, Borneol,And Carvacrol” (priority 2005, published 2008)
≈ marks a conversion by molar mass, not a printed value. Read-outs that look alike come from different tables or passages of the source.

Experiments:
[1] = test system: HEP, BSR and P815 cell lines; experiment: cells
Protocol: (§1) […] tests were carried out on HEP (human larynx carcinoma), BSR (hamster kidney carcinoma) and P815 (murin mastocytoma) cell lines cultivated on DMEM medium (Dulbecco's modified eagles medium) supplemented with 5% of fetal bovine serum (Gibco BRL, France), 1% of penicillin- streptomycin-neomycin, 0.2% of sodium bicarbonate. These percentages are given as ratio of the weight to the global volume of the medium.
(§2) In these compositions, excipient is agar solution.
(§3) IC50 have been determined.

[2] = test system: HEP (human larynx carcinoma) cell line; experiment: MTT cytotoxicity on HEP cell line; format: cell-based
Protocol: as §1, §2, §3

[3] = test system: BSR (hamster kidney carcinoma) cell line; experiment: MTT cytotoxicity on BSR cell line; format: cell-based; conditions: Mesocricetus auratus, read-out: IC50 (concentration inducing cytotoxicity for 50% of treated tumor cells)
Protocol: as §1, §2, §3

[4] = test system: P815 (murin mastocytoma) cell line; experiment: MTT cytotoxicity on P815 cell line; format: cell-based; conditions: Mus musculus, P815, read-out: IC50 (concentration inducing cytotoxicity for 50% of treated tumor cells)
Protocol: as §1, §2, §3

[5] = read-out: IC50 (concentration inducing cytotoxicity for 50% of treated tumor cells)

Row | Structure (SMILES) | cytotoxic effects towards cell lines at the concentration used in the tested compositions [1] | IC50 [2, 5] [µg/mL] | IC50 [3] [µg/mL] | IC50 [4] [µg/mL] | IC50 ([2]; read-out: IC50 (concentration inducing cytotoxicity for 50% of treated tumor cells), HEP, carvacrol, thymol or carveol alone) [µg/mL] | IC50 ([3]; BSR, carvacrol, thymol or carveol alone) [µg/mL] | IC50 ([1]; Mus musculus, P815, read-out: IC50 of doxorubicin used alone) [µg/mL]
1 | C=C(C)C1CC=C(C)C(O)C1 (mixture of isomers) [Carveol, carveol] | without any cytotoxic effects | 400 | 400 | 400 |  |  | 
2 | Cc1ccc(C(C)C)cc1O [Carvacrol, carvacrol] | without any cytotoxic effects |  |  | 300 (≈ 2000 µM) | 300 (≈ 2000 µM) | 300 (≈ 2000 µM) | 
3 | COc1cccc2c1C(=O)c1c(O)c3c(c(O)c1C2=O)C[C@@](O)(C(=O)CO)C[C@@H]3O[C@H]1C[C@H](N)[C@H](O)[C@H](C)O1 [Doxorubicin, doxorubicin, reference compound] |  | 20 (≈ 36.8 µM) | 25 (≈ 46 µM) | 15 (≈ 27.6 µM) |  |  | 15 to 25 (≈ 27.6 to 46 µM)
4 | Cc1ccc(C(C)C)c(O)c1 [Thymol, thymol] | without any cytotoxic effects | 300 (≈ 2000 µM) | 300 (≈ 2000 µM) | 300 (≈ 2000 µM) |  |  | 
